For orientation: IC50 means the concentration at which inhibition is half-maximal. High values mean a need for much substance, low ones inhibition by little substance.

The structures appear in SMILES notation.

The source of these data is patent publication US20230340011A1 (Asteroid Therapeutics, priority 2022, published 2023).

One experiment concerns the target SREBP-2 (Homo sapiens (Human), UniProt Q12772). The experiment can be described thus: In vitro assay SREBP-2: PathHunter U2OS SREBP-2 Nuclear Translocation Cell Line, U18666A-stimulated. The experiment is classed as cell-based. The conditions noted are these: PathHunter U2OS SREBP-2 nuclear translocation cells, U18666A 10 μM, overnight (16 hours).
The target in a further experiment is LXRβ (Homo sapiens (Human), UniProt P55055). The experiment can be described thus: In vitro assay LXRβ: PathHunter NHR CHO cells, LXRβ / Steroid Receptor Co-activator Peptide enzyme fragment complementation. The experiment is classed as cell-based. To be noted: PathHunter NHR CHO cells, full-length human LXRβ and SRCP, chemiluminescent signal; read-out: LXRβ PPI. The gist of the method: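 Enzyme fragment complementation read-out: CHO cells stably expressing ProLink-tagged full-length human LXRβ plus nuclear enzyme acceptor–SRCP fusion, seeded and held overnight at 37° C. Medium with charcoal-dextran filtered serum; final vehicle 1%. Chemiluminescence measured after signal generation.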
LXRβ, sequence (P55055 whole entry, the tested form may be a part): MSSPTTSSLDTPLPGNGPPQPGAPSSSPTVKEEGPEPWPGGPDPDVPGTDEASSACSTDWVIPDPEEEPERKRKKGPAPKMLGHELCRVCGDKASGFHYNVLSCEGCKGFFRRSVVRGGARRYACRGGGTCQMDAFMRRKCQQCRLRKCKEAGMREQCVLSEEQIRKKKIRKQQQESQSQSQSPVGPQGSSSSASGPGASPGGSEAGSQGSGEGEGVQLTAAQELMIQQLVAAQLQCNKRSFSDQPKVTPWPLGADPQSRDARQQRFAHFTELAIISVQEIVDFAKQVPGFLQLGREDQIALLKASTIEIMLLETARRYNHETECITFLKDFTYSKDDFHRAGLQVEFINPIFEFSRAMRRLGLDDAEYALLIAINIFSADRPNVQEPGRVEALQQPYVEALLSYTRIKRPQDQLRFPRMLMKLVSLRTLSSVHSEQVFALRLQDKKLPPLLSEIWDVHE

For the compound `COc1cccnc1NC(=O)CC[C@@H](C)[C@H]1CC[C@H]2[C@@H]3CC=C4C[C@@H](O)CC[C@]4(C)[C@H]3CC[C@]12C` [Example 625, (R)-4-((3S,8S,9S,10R,13R,14S,17R)-3-hydroxy-10,13-dimethyl-2,3,4,7,8,9,10,11,12,13,14,15,16,17-tetradecahydro-1H-cyclopenta[a]phenanthren-17-yl)-N-(3-methoxypyridin-2-yl)pentanamide], the half-inhibitory concentration (IC50) against SREBP-2 is under 0.25 µM. In addition, the EC50 on LXRβ was over 10 µM.

`COC1CCN(C(=O)CC[C@@H](C)[C@H]2CC[C@H]3[C@@H]4CC=C5C[C@@H](O)CC[C@]5(C)[C@H]4CC[C@]23C)CC1` [Example 94, (R)-4-((3S,8S,9S,10R,13R,14S,17R)-3-hydroxy-10,13-dimethyl-2,3,4,7,8,9,10,11,12,13,14,15,16,17-tetradecahydro-1H-cyclopenta[a]phenanthren-17-yl)-1-(4-methoxypiperidin-1-yl)pentan-1-one] gave an IC50 against SREBP-2 of under 0.25 µM. Besides, on LXRβ, the EC50 lay in the range of 0.25 to 1 µM.

`CCC1(O)CCN(C(=O)CC[C@@H](C)[C@H]2CC[C@H]3[C@@H]4CC=C5C[C@@H](O)C[C@H](O)[C@]5(C)[C@H]4CC[C@]23C)CC1` [Example 156, (R)-4-((1S,3R,8S,9S,10R,13R,14S,17R)-1,3-dihydroxy-10,13-dimethyl-2,3,4,7,8,9,10,11,12,13,14,15,16,17-tetradecahydro-1H-cyclopenta[a]phenanthren-17-yl)-1-(4-ethyl-4-hydroxypiperidin-1-yl)pentan-1-one]: the half-maximal inhibitory concentration (IC50) against SREBP-2 was over 10 µM. Also, the EC50 at LXRβ was under 0.25 µM.

At SREBP-2, `CC(O)c1cccnc1CC[C@@H](C)[C@H]1CC[C@H]2[C@@H]3CC=C4C[C@@H](O)CC[C@]4(C)[C@H]3CC[C@]12C` (stereo partly drawn) [Example 455, (3S,8S,9S,10R,13R,14S,17R)-17-((2R)-4-(3-(1-hydroxyethyl)pyridin-2-yl)butan-2-yl)-10,13-dimethyl-2,3,4,7,8,9,10,11,12,13,14,15,16,17-tetradecahydro-1H-cyclopenta[a]phenanthren-3-ol] registered an IC50 of under 0.25 µM. Further, at LXRβ, the EC50 was under 0.25 µM.

As for `C[C@H](CCc1ncccc1CO)[C@H]1CC[C@H]2[C@@H]3CC=C4C[C@@H](O)CC[C@]4(C)[C@H]3CC[C@]12C` [Example 250, (3S,8S,9S,10R,13R,14S,17R)-17-((R)-4-(3-(hydroxymethyl)pyridin-2-yl)butan-2-yl)-10,13-dimethyl-2,3,4,7,8,9,10,11,12,13,14,15,16,17-tetradecahydro-1H-cyclopenta[a]phenanthren-3-ol], the IC50 against SREBP-2 was under 0.25 µM. In addition, the EC50 on LXRβ is under 0.25 µM.

As for `CC1CCN(C(=O)CC[C@@H](C)[C@H]2CC[C@H]3[C@@H]4C[C@@H](O)[C@H]5C[C@@H](O)CC[C@]5(C)[C@H]4CC[C@]23C)CC1` [Example C2, (R)-4-((3S,5S,6R,8S,9S,10R,13R,14S,17R)-3,6-dihydroxy-10,13-dimethylhexadecahydro-1H-cyclopenta[a]phenanthren-17-yl)-1-(4-methylpiperidin-1-yl)pentan-1-one], on SREBP-2, the IC50 is over 10 µM. For the same compound, the EC50 at LXRβ was over 10 µM.

`CC(O)C1CCN(C(=O)CC[C@@H](C)[C@H]2CC[C@H]3[C@@H]4CC=C5C[C@@H](O)CC[C@]5(C)[C@H]4CC[C@]23C)CC1` (stereo partly drawn) [Example 377, (4R)-4-[(1R,3aS,3bS,7S,9aR,9bS,11aR)-7-hydroxy-9a,11a-dimethyl-1H,2H,3H,3aH,3bH,4H,6H,7H,8H,9H,9aH,9bH,10H,11H,11aH-cyclopenta[a]phenanthren-1-yl]-1-[4-(1-hydroxyethyl)piperidin-1-yl]pentan-1-one] showed an IC50 against SREBP-2 of under 0.25 µM. In addition, on LXRβ, the EC50 lay in the range of 0.25 to 1 µM.

For `COc1nccnc1N1CCN(C(=O)CC[C@@H](C)[C@H]2CC[C@H]3[C@@H]4CC=C5C[C@@H](O)CC[C@]5(C)[C@H]4CC[C@]23C)CC1` [Example 610, (R)-4-((3S,8S,9S,10R,13R,14S,17R)-3-hydroxy-10,13-dimethyl-2,3,4,7,8,9,10,11,12,13,14,15,16,17-tetradecahydro-1H-cyclopenta[a]phenanthren-17-yl)-1-(4-(3-methoxypyrazin-2-yl)piperazin-1-yl)pentan-1-one], the IC50 at SREBP-2 was under 0.25 µM. Besides, the EC50 on LXRβ is over 10 µM.

In turn, `C[C@H](CCC(=O)N1CCN(C(=O)N(C)CC2CC2)CC1)[C@H]1CC[C@H]2[C@@H]3CC=C4C[C@@H](O)CC[C@]4(C)[C@H]3CC[C@]12C` [Example 210, N-(cyclopropylmethyl)-4-((R)-4-((3S,8S,9S,10R,13R,14S,17R)-3-hydroxy-10,13-dimethyl-2,3,4,7,8,9,10,11,12,13,14,15,16,17-tetradecahydro-1H-cyclopenta[a]phenanthren-17-yl)pentanoyl)-N-methylpiperazine-1-carboxamide] came in with an IC50 on SREBP-2 of under 0.25 µM. For the same compound, the EC50 at LXRβ is over 10 µM.

On SREBP-2, `C[C@H](COc1ccccc1)[C@H]1CC[C@H]2[C@@H]3CC=C4C[C@@H](O)CC[C@]4(C)[C@H]3CC[C@]12C` [Example 182, (1R,3aS,3bS,7S,9aR,9bS,11aS)-9a,11a-dimethyl-1-[(2S)-1-phenoxypropan-2-yl]-1H,2H,3H,3aH,3bH,4H,6H,7H,8H,9H,9aH,9bH,10H,11H,11aH-cyclopenta[a]phenanthren-7-ol] yielded an IC50 of 0.25 to 1 µM. Further, the EC50 at LXRβ is over 10 µM.

Turning to `CC(=O)N(C)C1CCN(C(=O)CC[C@@H](C)[C@H]2CC[C@H]3[C@@H]4CC=C5C[C@@H](O)CC[C@]5(C)[C@H]4CC[C@]23C)CC1` [Example 319, N-(1-((R)-4-((3S,8S,9S,10R,13R,14S,17R)-3-hydroxy-10,13-dimethyl-2,3,4,7,8,9,10,11,12,13,14,15,16,17-tetradecahydro-1H-cyclopenta[a]phenanthren-17-yl)pentanoyl)piperidin-4-yl)-N-methylacetamide], at SREBP-2, the IC50 is under 0.25 µM. Further, the EC50 on LXRβ is over 10 µM.

In the case of `CNC(=O)c1cccnc1OC[C@@H](C)[C@H]1CC[C@H]2[C@@H]3CC=C4C[C@@H](O)CC[C@]4(C)[C@H]3CC[C@]12C` [Example 253, 2-((S)-2-((3S,8S,9S,10R,13S,14S,17R)-3-hydroxy-10,13-dimethyl-2,3,4,7,8,9,10,11,12,13,14,15,16,17-tetradecahydro-1H-cyclopenta[a]phenanthren-17-yl)propoxy)-N-methylnicotinamide], the IC50 against SREBP-2 was under 0.25 µM. Also, the EC50 on LXRβ was over 10 µM.

With `COC(=O)N1CCN(C(=O)CC[C@@H](C)[C@H]2CC[C@H]3[C@@H]4CC=C5C[C@@H](O)CC[C@]5(C)[C@H]4CC[C@]23C)C[C@@H]1C` [Example 566, Methyl (2S)-4-[(4R)-4-[(1R,3aS,3bS,7S,9aR,9bS,11aR)-7-hydroxy-9a,11a-dimethyl-1H,2H,3H,3aH,3bH,4H,6H,7H,8H,9H,9aH,9bH,10H,11H,11aH-cyclopenta[a]phenanthren-1-yl]pentanoyl]-2-methylpiperazine-1-carboxylate], at SREBP-2, the IC50 was under 0.25 µM. The EC50 on LXRβ was over 10 µM.
